Where “and” joins values, the source holds several entries; their conditions need not be identical. Equal entries are not always repeated. Inconclusive results and toxic doses are left out. Rule as the data show it: active = T/C of 150% or more; inactive = T/C below 125%.
Tested on: L1210 leukemia ip in BDF1 mice, survival T/C
Test: NCI In Vivo Anticancer Drug Screen. Data for tumor model L1210 Leukemia (intraperitoneal) in B6D2F1 (BDF1) mice
Conditions: endpoint: mean survival time, higher = longer survival
In short: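 Tumor cells were implanted, animals were treated, and survival was followed. The result divides the treated measurement by the vehicle-control measurement.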

[1] = dose: 100.0 mg/kg/injection, schedule: Q01DX009 (ip), vehicle: Klucel (hydroxypropylcellulose) (HPC)
[2] = dose: 100.0 mg/kg/injection, schedule: Q04DX003 (ip), vehicle: Klucel (hydroxypropylcellulose) (HPC)
[3] = dose: 200.0 mg/kg/injection, schedule: Q01DX009 (ip), vehicle: Klucel (hydroxypropylcellulose) (HPC)
[4] = dose: 200.0 mg/kg/injection, schedule: Q04DX003 (ip), vehicle: Klucel (hydroxypropylcellulose) (HPC)
[5] = dose: 400.0 mg/kg/injection, schedule: Q01DX009 (ip), vehicle: Klucel (hydroxypropylcellulose) (HPC)
[6] = dose: 400.0 mg/kg/injection, schedule: Q04DX003 (ip), vehicle: Klucel (hydroxypropylcellulose) (HPC)
[7] = dose: 100.0 mg/kg/injection, schedule: Q01DX001 (ip), vehicle: saline
[8] = dose: 200.0 mg/kg/injection, schedule: Q01DX001 (ip), vehicle: saline
[9] = dose: 400.0 mg/kg/injection, schedule: Q01DX001 (ip), vehicle: saline
[10] = dose: 50.0 mg/kg/injection, schedule: Q01DX001 (ip), vehicle: saline
[11] = dose: 100.0 mg/kg/injection, schedule: Q04DX003 (ip), vehicle: saline
[12] = dose: 100.0 mg/kg/injection, schedule: Q04DX003 (ip), vehicle: saline with Tween-80

Measured: T/C

O=Nc1c(O)ccc2ccccc12
inactive: dose: 3.12 mg/kg/injection, schedule: Q01DX009 (ip), vehicle: Klucel (hydroxypropylcellulose) (HPC) 90 % of control | dose: 5.0 mg/kg/injection, schedule: Q01DX001 (ip), vehicle: saline 98 % of control | dose: 6.25 mg/kg/injection, schedule: Q01DX009 (ip), vehicle: Klucel (hydroxypropylcellulose) (HPC) 95 % of control | dose: 10.0 mg/kg/injection, schedule: Q01DX001 (ip), vehicle: saline 104 % of control | dose: 12.5 mg/kg/injection, schedule: Q01DX009 (ip), vehicle: Klucel (hydroxypropylcellulose) (HPC) 92 % of control | dose: 20.0 mg/kg/injection, schedule: Q01DX001 (ip), vehicle: saline 95 % of control | dose: 25.0 mg/kg/injection, schedule: Q01DX001 (ip), vehicle: saline with Tween-80 94 % of control | dose: 25.0 mg/kg/injection, schedule: Q01DX009 (ip), vehicle: Klucel (hydroxypropylcellulose) (HPC) 104 % of control | dose: 40.0 mg/kg/injection, schedule: Q01DX001 (ip), vehicle: saline 101 % of control | dose: 50.0 mg/kg/injection, schedule: Q01DX001 (ip), vehicle: saline with Tween-80 104 % of control | dose: 80.0 mg/kg/injection, schedule: Q01DX001 (ip), vehicle: saline 106 % of control | dose: 100.0 mg/kg/injection, schedule: Q01DX001 (ip), vehicle: saline with Tween-80 91 % of control

O=C(O)CCC1(c2ccccc2)CCCC1=O (configuration not stated)
inactive: dose: 12.5 mg/kg/injection, schedule: Q01DX009 (ip), vehicle: water 101 % of control | dose: 25.0 mg/kg/injection, schedule: Q01DX009 (ip), vehicle: water 104 % of control | dose: 50.0 mg/kg/injection, schedule: Q01DX009 (ip), vehicle: water 98 % of control | dose: 100.0 mg/kg/injection, schedule: Q01DX009 (ip), vehicle: water 95 % of control

Clc1ncnc2ccccc12
inactive: dose: 100.0 mg/kg/injection, schedule: Q01DX001 (ip), vehicle: Klucel (hydroxypropylcellulose) (HPC) 94 % of control | dose: 200.0 mg/kg/injection, schedule: Q01DX001 (ip), vehicle: Klucel (hydroxypropylcellulose) (HPC) 95 % of control

COC(=O)c1cc(NC(=O)Nc2ccc(F)c(Cl)c2)cc(C(=O)OC)c1
inactive: dose: 100.0 mg/kg/injection, schedule: Q01DX009 (ip), vehicle: saline 98 % of control | dose: 200.0 mg/kg/injection, schedule: Q01DX009 (ip), vehicle: saline 98 % of control | dose: 400.0 mg/kg/injection, schedule: Q01DX009 (ip), vehicle: saline 102 % of control

CCOC(=O)C1CCCC23CC(CC12)C(C)(C)C3Br (configuration not stated)
inactive: [1] 100 % of control | [2] 94 % of control | [3] 94 % of control | [4] 95 % of control | [5] 94 % of control | [6] 103 % of control

O=C(O)c1c(-c2nccc3ccccc23)[nH]c(-c2ccccc2)c1S(=O)(=O)O
inactive: dose: 75.0 mg/kg/injection, schedule: Q01DX001 (ip), vehicle: saline 103 % of control | dose: 150.0 mg/kg/injection, schedule: Q01DX001 (ip), vehicle: saline 101 % of control

Cc1ccc(C)c2c3c(oc12)CCCC3
inactive: [7] 91 % of control | [8] 94 % of control | [9] 105 % of control

CSc1ccc(NC(=O)Nc2cc(C)cc(C)n2)cc1
inactive: [1] 94 % of control | [2] 98 % of control | [3] 94 % of control | [4] 103 % of control | [5] 87 % of control | [6] 98 % of control

Cc1c(/C=N/NC(N)=S)[nH]c(=O)[nH]c1=O
inactive: [7] 94 % of control | [8] 94 % of control | [9] 109 % of control

COc1ccccc1CNCCCO
inactive: [10] 96 % of control | [7] 102 % of control | [8] 106 % of control | [9] 100 % of control

Cc1ccc(S(=O)(=O)NC(=O)NC2CCCCC2)cc1
inactive: [11] 88 % of control | dose: 200.0 mg/kg/injection, schedule: Q04DX003 (ip), vehicle: saline 93 % of control | dose: 400.0 mg/kg/injection, schedule: Q04DX003 (ip), vehicle: saline 104 % of control

COc1cc(C=O)cc(I)c1O
inactive: dose: 12.5 mg/kg/injection, schedule: Q01DX009 (ip), vehicle: saline with Tween-80 94 % of control | dose: 25.0 mg/kg/injection, schedule: Q01DX009 (ip), vehicle: saline with Tween-80 94 % of control | dose: 50.0 mg/kg/injection, schedule: Q01DX009 (ip), vehicle: saline with Tween-80 91 % of control

CN(C)c1ccnc(Cl)n1
inactive: dose: 16.0 mg/kg/injection, schedule: Q01DX Z (ip), vehicle: methylcellulose (MC) 97 % of control | dose: 31.0 mg/kg/injection, schedule: Q01DX Z (ip), vehicle: methylcellulose (MC) 96 % of control | dose: 62.0 mg/kg/injection, schedule: Q01DX Z (ip), vehicle: methylcellulose (MC) 90 % of control | dose: 125.0 mg/kg/injection, schedule: Q01DX Z (ip), vehicle: methylcellulose (MC) 92 % of control and 100 % of control | dose: 250.0 mg/kg/injection, schedule: Q01DX Z (ip), vehicle: methylcellulose (MC) 97 % of control

O=C(O)c1cccc(Br)c1.[Ni]
inactive: dose: 25.0 mg/kg/injection, schedule: Q04DX002 (ip), vehicle: Klucel (hydroxypropylcellulose) (HPC) 100 % of control | dose: 50.0 mg/kg/injection, schedule: Q04DX002 (ip), vehicle: Klucel (hydroxypropylcellulose) (HPC) 106 % of control

O=C(O)c1cn(C2CCCCC2)c(=O)[nH]c1=O
inactive: dose: 25.0 mg/kg/injection, schedule: Q01DX Z (ip), vehicle: methylcellulose (MC) 107 % of control | dose: 50.0 mg/kg/injection, schedule: Q01DX Z (ip), vehicle: methylcellulose (MC) 91 % of control

Cc1ncc(C#N)c(C)n1
inactive: [7] 107 % of control | [8] 102 % of control | [9] 107 % of control

CCN(CC)CCN1C(=O)C(c2ccccc2)C2(CCN(C)CC2)C1=O (configuration not stated)
inactive: [7] 101 % of control | [8] 105 % of control | [9] 97 % of control

O=C(CCCC(=O)N/N=C/c1cc(Br)cc(Br)c1)N/N=C\c1cc(Br)cc(Br)c1
inactive: [10] 96 % of control | [7] 98 % of control | [8] 96 % of control | [9] 90 % of control

CCOC(C(=O)OC1CCN(C)CC1)(c1ccccc1)c1ccccc1
inactive: dose: 25.0 mg/kg/injection, schedule: Q04DX003 (ip), vehicle: saline 97 % of control | dose: 50.0 mg/kg/injection, schedule: Q04DX003 (ip), vehicle: saline 96 % of control | [12] 93 % of control | [11] 97 % of control

Cc1ncc2c(=O)n(-c3ccc([N+](=O)[O-])cc3)[nH]c2n1
inactive: [12] 108 % of control | dose: 200.0 mg/kg/injection, schedule: Q04DX003 (ip), vehicle: saline with Tween-80 100 % of control | dose: 400.0 mg/kg/injection, schedule: Q04DX003 (ip), vehicle: saline with Tween-80 108 % of control

O=C(CCC(=O)[O][Sn]([c]1ccccc1)([c]1ccccc1)[c]1ccccc1)[O][Sn]([c]1ccccc1)([c]1ccccc1)[c]1ccccc1
inactive: dose: 1.56 mg/kg/injection, schedule: Q01DX009 (ip), vehicle: saline with Tween-80 93 % of control | dose: 3.12 mg/kg/injection, schedule: Q01DX009 (ip), vehicle: saline with Tween-80 90 % of control | dose: 6.25 mg/kg/injection, schedule: Q04DX003 (ip), vehicle: saline with Tween-80 95 % of control | dose: 12.5 mg/kg/injection, schedule: Q01DX001 (ip), vehicle: saline 104 % of control | dose: 25.0 mg/kg/injection, schedule: Q01DX001 (ip), vehicle: saline 91 % of control
